Laboratory results from patent publication US10844077B2, “Thiazolyl-containing compounds for treating proliferative diseases” (Dana-Farber Cancer Institute, Inc., priority 2014, dated 2020).
Read-outs that look alike come from different tables or passages of the source.

Tests used:
Format in all cases: binding
broad panel of kinases [1] = biological target: broad panel of kinases (Homo sapiens, UniProt P48729); details: CSNK1A1; 1 μM
broad panel of kinases [2] = biological target: broad panel of kinases (Homo sapiens, UniProt Q8TDC3); details: BRSK1; 1 μM
broad panel of kinases [3] = biological target: broad panel of kinases (Homo sapiens, UniProt Q16512); details: PKN1; 1 μM
broad panel of kinases [4] = biological target: broad panel of kinases (Homo sapiens, UniProt P36888, D835H); details: FLT3(D835H); 1 μM
broad panel of kinases [5] = biological target: broad panel of kinases (Homo sapiens, UniProt Q00532); details: CDKL1; 1 μM
broad panel of kinases [6] = biological target: broad panel of kinases (Homo sapiens, UniProt P00533, L858R); details: EGFR(L858R); 1 μM
broad panel of kinases (Homo sapiens, UniProt P00533, L858R), sequence (P00533 25-1210 L858R limits assumed): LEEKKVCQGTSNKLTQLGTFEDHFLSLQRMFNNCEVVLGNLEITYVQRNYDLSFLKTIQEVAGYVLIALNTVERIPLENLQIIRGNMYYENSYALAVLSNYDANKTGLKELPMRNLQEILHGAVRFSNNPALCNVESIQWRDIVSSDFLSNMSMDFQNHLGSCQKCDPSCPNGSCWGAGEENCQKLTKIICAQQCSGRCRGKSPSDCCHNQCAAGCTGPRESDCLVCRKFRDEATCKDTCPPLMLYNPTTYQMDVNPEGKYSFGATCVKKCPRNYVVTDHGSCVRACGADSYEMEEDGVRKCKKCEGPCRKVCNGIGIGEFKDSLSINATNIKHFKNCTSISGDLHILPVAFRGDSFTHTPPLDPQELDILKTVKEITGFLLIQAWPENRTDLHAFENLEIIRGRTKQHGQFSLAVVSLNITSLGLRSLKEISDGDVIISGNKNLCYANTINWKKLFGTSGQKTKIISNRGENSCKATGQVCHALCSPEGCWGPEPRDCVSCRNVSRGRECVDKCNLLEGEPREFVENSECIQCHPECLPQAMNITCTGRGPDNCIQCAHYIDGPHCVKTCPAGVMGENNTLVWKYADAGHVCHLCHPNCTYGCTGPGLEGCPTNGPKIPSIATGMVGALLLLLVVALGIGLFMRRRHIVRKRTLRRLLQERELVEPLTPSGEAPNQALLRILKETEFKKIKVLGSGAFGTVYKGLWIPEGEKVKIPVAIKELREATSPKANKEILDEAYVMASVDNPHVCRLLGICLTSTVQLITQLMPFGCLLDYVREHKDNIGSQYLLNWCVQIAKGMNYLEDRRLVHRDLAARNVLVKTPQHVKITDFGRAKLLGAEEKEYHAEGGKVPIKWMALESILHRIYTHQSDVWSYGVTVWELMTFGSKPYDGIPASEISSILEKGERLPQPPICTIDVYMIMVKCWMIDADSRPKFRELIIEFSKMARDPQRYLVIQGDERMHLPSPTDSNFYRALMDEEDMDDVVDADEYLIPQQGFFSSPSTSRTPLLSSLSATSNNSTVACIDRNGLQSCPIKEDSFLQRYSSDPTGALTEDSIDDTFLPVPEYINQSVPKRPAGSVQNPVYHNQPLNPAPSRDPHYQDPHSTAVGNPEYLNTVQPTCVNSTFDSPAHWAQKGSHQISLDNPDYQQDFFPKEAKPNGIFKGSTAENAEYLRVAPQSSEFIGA

broad panel of kinases [7] = biological target: broad panel of kinases (Homo sapiens, UniProt Q13131); details: AMPK-alpha1; 1 μM
broad panel of kinases [8] = biological target: broad panel of kinases (Homo sapiens, UniProt O75582); details: 1 μM
broad panel of kinases [9] = biological target: broad panel of kinases (Homo sapiens, UniProt Q96BR1); details: SGK3; 1 μM
broad panel of kinases [10] = biological target: broad panel of kinases (Homo sapiens, UniProt P42336, Q546K); details: PIK3CA(Q546K); 1 μM
broad panel of kinases [11] = biological target: broad panel of kinases (Homo sapiens, UniProt O14578); details: CIT; 1 μM
broad panel of kinases [12] = biological target: broad panel of kinases (Homo sapiens, UniProt Q9H4A3); details: WNK1; 1 μM
broad panel of kinases [13] = biological target: broad panel of kinases (Homo sapiens, UniProt Q13523); details: PRP4; 1 μM
broad panel of kinases (Homo sapiens, UniProt Q13523), sequence (Q13523 2-1007 limits assumed): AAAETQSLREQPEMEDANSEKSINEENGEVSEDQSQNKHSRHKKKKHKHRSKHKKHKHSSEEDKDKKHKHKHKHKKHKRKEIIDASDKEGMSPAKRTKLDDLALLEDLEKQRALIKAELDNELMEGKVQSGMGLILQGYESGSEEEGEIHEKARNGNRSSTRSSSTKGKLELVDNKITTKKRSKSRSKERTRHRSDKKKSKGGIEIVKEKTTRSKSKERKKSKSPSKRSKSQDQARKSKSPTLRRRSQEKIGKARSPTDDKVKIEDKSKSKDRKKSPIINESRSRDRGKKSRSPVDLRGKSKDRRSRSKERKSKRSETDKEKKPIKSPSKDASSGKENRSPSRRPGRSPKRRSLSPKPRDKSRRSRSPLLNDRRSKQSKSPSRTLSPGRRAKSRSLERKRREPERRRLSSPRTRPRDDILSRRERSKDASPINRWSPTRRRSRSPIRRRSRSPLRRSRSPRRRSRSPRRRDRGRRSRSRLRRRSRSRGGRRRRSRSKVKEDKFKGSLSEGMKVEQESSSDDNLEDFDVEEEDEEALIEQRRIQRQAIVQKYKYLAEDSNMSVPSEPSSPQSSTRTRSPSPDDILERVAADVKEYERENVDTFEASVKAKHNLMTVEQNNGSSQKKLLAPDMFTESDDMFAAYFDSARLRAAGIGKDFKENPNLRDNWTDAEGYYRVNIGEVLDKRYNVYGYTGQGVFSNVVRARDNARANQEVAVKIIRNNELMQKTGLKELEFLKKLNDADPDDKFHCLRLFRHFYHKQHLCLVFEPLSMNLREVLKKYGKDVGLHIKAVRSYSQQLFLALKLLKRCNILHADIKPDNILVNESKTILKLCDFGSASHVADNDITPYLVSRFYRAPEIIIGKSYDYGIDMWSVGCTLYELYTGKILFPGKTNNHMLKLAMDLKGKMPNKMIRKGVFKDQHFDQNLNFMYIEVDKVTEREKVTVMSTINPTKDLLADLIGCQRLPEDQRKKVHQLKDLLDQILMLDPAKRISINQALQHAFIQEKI

broad panel of kinases [14] = biological target: broad panel of kinases (Homo sapiens, UniProt P00533, T790M); details: EGFR(T790M); 1 μM
broad panel of kinases (Homo sapiens, UniProt P00533, T790M), sequence (P00533 25-1210 T790M limits assumed): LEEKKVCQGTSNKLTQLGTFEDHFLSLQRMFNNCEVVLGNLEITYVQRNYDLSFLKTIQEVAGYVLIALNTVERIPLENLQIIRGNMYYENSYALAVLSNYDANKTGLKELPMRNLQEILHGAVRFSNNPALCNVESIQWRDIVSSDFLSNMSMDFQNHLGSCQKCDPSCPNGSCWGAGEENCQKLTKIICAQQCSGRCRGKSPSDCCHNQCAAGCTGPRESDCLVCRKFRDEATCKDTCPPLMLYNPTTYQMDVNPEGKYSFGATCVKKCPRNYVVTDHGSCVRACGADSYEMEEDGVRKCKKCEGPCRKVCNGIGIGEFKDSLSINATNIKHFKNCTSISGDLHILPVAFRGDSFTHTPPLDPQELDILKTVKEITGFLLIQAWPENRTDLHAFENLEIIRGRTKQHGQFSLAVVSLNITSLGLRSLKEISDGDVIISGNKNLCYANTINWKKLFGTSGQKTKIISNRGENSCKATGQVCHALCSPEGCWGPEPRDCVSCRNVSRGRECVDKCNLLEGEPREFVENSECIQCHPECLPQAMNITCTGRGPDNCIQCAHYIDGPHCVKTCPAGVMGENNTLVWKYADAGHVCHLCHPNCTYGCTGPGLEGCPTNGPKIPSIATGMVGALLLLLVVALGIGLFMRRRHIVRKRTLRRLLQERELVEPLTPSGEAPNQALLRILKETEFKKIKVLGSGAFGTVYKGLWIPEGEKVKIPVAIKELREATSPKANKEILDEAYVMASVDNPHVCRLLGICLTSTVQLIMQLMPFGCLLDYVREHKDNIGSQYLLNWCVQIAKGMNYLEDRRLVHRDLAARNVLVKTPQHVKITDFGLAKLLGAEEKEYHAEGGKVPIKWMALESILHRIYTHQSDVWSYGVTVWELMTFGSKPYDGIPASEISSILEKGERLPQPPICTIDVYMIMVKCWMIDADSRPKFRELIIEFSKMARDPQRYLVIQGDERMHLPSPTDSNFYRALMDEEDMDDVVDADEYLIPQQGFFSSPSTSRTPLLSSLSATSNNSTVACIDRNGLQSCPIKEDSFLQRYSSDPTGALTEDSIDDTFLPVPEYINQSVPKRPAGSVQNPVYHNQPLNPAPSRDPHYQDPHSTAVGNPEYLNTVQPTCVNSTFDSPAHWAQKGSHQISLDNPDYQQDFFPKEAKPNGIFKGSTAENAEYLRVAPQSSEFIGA

broad panel of kinases [15] = biological target: broad panel of kinases (Homo sapiens, UniProt P07949, V804L); details: RET(V804L); 1 μM
broad panel of kinases [16] = biological target: broad panel of kinases (Homo sapiens, UniProt P04626); details: ERBB2; 1 μM
broad panel of kinases [17] = biological target: broad panel of kinases (Homo sapiens, UniProt O43353); details: RIPK2; 1 μM
broad panel of kinases [18] = biological target: broad panel of kinases (Homo sapiens, UniProt Q8IWQ3); details: BRSK2; 1 μM
broad panel of kinases [19] = biological target: broad panel of kinases (Homo sapiens, UniProt O76039); details: CDKL5; 1 μM
broad panel of kinases [20] = biological target: broad panel of kinases (Homo sapiens, UniProt P42336, M1043I); details: PIK3CA(M1043I); 1 μM
broad panel of kinases [21] = biological target: broad panel of kinases (Homo sapiens, UniProt P31751); details: AKT2; 1 μM
broad panel of kinases [22] = biological target: broad panel of kinases (Homo sapiens, UniProt Q9P286); details: PAK7; 1 μM
broad panel of kinases [23] = biological target: broad panel of kinases (Homo sapiens, UniProt O75385); details: ULK1; 1 μM
broad panel of kinases [24] = biological target: broad panel of kinases (Homo sapiens, UniProt P22694); details: PKAC-beta; 1 μM
broad panel of kinases [25] = biological target: broad panel of kinases (Homo sapiens, UniProt Q00526); details: CDK3; 1 μM
broad panel of kinases [26] = biological target: broad panel of kinases (Homo sapiens, UniProt P00519, F317L); details: 1 μM
broad panel of kinases [27] = biological target: broad panel of kinases (Homo sapiens, UniProt P57059); details: SIK; 1 μM
broad panel of kinases [28] = biological target: broad panel of kinases (Homo sapiens, UniProt P00519, T315I); details: 1 μM
broad panel of kinases [29] = biological target: broad panel of kinases (Homo sapiens, UniProt P07332); details: FES; 1 μM
broad panel of kinases [30] = biological target: broad panel of kinases (Homo sapiens, UniProt P33981); details: TTK; 1 μM
broad panel of kinases [31] = biological target: broad panel of kinases (Homo sapiens, UniProt P54762); details: EPHB1; 1 μM
broad panel of kinases [32] = biological target: broad panel of kinases (Homo sapiens, UniProt O95835); details: LATS1; 1 μM
broad panel of kinases [33] = biological target: broad panel of kinases (Homo sapiens, UniProt P14616); details: INSRR; 1 μM
broad panel of kinases (Homo sapiens, UniProt P14616), sequence (P14616 27-742 limits assumed): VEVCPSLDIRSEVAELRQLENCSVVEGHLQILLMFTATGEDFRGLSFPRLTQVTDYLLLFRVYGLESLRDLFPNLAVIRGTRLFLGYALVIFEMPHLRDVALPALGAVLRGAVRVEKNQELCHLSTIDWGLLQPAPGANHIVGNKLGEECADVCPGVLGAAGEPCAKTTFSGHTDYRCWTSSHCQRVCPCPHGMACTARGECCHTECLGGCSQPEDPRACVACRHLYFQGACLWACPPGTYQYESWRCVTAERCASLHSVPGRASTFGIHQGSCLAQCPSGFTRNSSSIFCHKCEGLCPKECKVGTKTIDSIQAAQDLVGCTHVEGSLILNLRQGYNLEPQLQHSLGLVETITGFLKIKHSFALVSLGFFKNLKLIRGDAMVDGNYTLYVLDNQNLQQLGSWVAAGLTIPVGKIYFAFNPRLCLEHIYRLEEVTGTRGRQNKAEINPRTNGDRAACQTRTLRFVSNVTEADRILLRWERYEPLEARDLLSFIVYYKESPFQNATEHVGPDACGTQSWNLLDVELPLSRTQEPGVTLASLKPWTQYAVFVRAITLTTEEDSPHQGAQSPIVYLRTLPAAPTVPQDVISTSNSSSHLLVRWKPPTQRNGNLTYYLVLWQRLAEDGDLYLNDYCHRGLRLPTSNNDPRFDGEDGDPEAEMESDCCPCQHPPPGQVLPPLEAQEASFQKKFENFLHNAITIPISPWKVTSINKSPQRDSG
broad panel of kinases (Homo sapiens, UniProt P14616), sequence (P14616 747-1297 limits assumed): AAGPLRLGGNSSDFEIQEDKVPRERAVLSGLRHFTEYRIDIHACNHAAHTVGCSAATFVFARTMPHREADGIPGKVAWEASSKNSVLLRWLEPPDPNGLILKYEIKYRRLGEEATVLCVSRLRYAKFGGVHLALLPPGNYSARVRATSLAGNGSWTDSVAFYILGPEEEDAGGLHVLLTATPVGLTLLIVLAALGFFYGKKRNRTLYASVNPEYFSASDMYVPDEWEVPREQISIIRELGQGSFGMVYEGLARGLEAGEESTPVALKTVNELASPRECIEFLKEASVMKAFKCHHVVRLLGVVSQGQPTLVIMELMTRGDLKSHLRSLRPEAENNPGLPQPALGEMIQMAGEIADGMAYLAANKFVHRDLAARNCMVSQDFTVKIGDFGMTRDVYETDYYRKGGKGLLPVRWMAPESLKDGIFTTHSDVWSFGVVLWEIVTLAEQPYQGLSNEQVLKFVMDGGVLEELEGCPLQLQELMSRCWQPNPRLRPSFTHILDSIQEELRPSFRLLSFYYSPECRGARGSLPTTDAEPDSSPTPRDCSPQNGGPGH

broad panel of kinases [34] = biological target: broad panel of kinases (Homo sapiens, UniProt Q6PHR2); details: ULK3; 1 μM
broad panel of kinases [35] = biological target: broad panel of kinases (Homo sapiens, UniProt P54764); details: EPHA4; 1 μM

broad panel of kinases (Homo sapiens, UniProt P48729), sequence (P48729 2-337 limits assumed): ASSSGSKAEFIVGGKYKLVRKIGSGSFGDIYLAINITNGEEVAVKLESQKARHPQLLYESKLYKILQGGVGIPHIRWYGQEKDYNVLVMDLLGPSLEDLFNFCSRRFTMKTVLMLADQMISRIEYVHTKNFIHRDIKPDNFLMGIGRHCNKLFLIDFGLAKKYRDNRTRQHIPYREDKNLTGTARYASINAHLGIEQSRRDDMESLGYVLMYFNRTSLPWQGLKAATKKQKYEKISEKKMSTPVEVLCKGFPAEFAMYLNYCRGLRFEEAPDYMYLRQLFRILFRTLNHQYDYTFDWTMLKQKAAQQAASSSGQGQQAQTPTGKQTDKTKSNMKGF

SMILES	percent of control binding remaining (lower = stronger binding) (broad panel of kinases [1])	percent of control binding remaining (lower = stronger binding) (broad panel of kinases [2])	percent of control binding remaining (lower = stronger binding) (broad panel of kinases [3])	percent of control binding remaining (lower = stronger binding) (broad panel of kinases [4])	percent of control binding remaining (lower = stronger binding) (broad panel of kinases [5])	percent of control binding remaining (lower = stronger binding) (broad panel of kinases [6])	percent of control binding remaining (lower = stronger binding) (broad panel of kinases [7])	percent of control binding remaining (lower = stronger binding) (broad panel of kinases [8]; RPS6KA5(Kin.Dom.1-N-terminal))	percent of control binding remaining (lower = stronger binding) (broad panel of kinases [8]; RPS6KA5(Kin.Dom.2-C-terminal))	percent of control binding remaining (lower = stronger binding) (broad panel of kinases [9])	percent of control binding remaining (lower = stronger binding) (broad panel of kinases [10])	percent of control binding remaining (lower = stronger binding) (broad panel of kinases [11])	percent of control binding remaining (lower = stronger binding) (broad panel of kinases [12])	percent of control binding remaining (lower = stronger binding) (broad panel of kinases [13])	percent of control binding remaining (lower = stronger binding) (broad panel of kinases [14])	percent of control binding remaining (lower = stronger binding) (broad panel of kinases [15])	percent of control binding remaining (lower = stronger binding) (broad panel of kinases [16])	percent of control binding remaining (lower = stronger binding) (broad panel of kinases [17])	percent of control binding remaining (lower = stronger binding) (broad panel of kinases [18])	percent of control binding remaining (lower = stronger binding) (broad panel of kinases [19])	further results
C=CC(=O)N1CC[C@H](Nc2nc(CN3CCOCC3)cc(Nc3ncc(C(=O)Nc4c(C)cccc4C)s3)n2)C1 [Example I-2]	100%	100%	100%	100%	100%	0%	100%	98%	94%	100%	83%	100%	100%	95%	48%	98%	7.5%	14%	100%	100%	percent of control binding remaining (lower = stronger binding) (broad panel of kinases [20]): 96%; percent of control binding remaining (lower = stronger binding) (broad panel of kinases [21]): 88%; percent of control binding remaining (lower = stronger binding) (broad panel of kinases [22]): 96%; percent of control binding remaining (lower = stronger binding) (broad panel of kinases [23]): 79%; percent of control binding remaining (lower = stronger binding) (broad panel of kinases [24]): 92%; percent of control binding remaining (lower = stronger binding) (broad panel of kinases [25]): 73%; percent of control binding remaining (lower = stronger binding) (broad panel of kinases [26]; ABL1(F317L)-nonphosphorylated): 0%; percent of control binding remaining (lower = stronger binding) (broad panel of kinases [26]; ABL1(F317L)-phosphorylated): 0.5%; percent of control binding remaining (lower = stronger binding) (broad panel of kinases [27]): 0.8%; percent of control binding remaining (lower = stronger binding) (broad panel of kinases [28]; ABL1(T315I)-nonphosphorylated): 95%; percent of control binding remaining (lower = stronger binding) (broad panel of kinases [28]; ABL1(T315I)-phosphorylated): 69%; percent of control binding remaining (lower = stronger binding) (broad panel of kinases [29]): 98%; percent of control binding remaining (lower = stronger binding) (broad panel of kinases [30]): 100%; percent of control binding remaining (lower = stronger binding) (broad panel of kinases [31]): 0.35%; percent of control binding remaining (lower = stronger binding) (broad panel of kinases [32]): 100%; percent of control binding remaining (lower = stronger binding) (broad panel of kinases [33]): 96%; percent of control binding remaining (lower = stronger binding) (broad panel of kinases [34]): 97%; percent of control binding remaining (lower = stronger binding) (broad panel of kinases [35]): 0%
C=CC(=O)N1CC[C@H](Nc2nccc(Nc3ncc(C(=O)Nc4c(C)cccc4C)s3)n2)C1 [Example I-3]	100%	100%	81%	100%	93%	0.75%	98%	88%	52%	100%	100%	88%	95%	100%	56%	100%	0.8%	31%	95%	100%	percent of control binding remaining (lower = stronger binding) (broad panel of kinases [20]): 100%; percent of control binding remaining (lower = stronger binding) (broad panel of kinases [21]): 100%; percent of control binding remaining (lower = stronger binding) (broad panel of kinases [22]): 97%; percent of control binding remaining (lower = stronger binding) (broad panel of kinases [23]): 86%; percent of control binding remaining (lower = stronger binding) (broad panel of kinases [24]): 100%; percent of control binding remaining (lower = stronger binding) (broad panel of kinases [25]): 100%; % change compared to control (broad panel of kinases [26]; ABL1(F317L)-nonphosphorylated): 0.5%; % change compared to control (broad panel of kinases [26]; ABL1(F317L)-phosphorylated): 2%; percent of control binding remaining (lower = stronger binding) (broad panel of kinases [27]): 0.4%; % change compared to control (broad panel of kinases [28]; ABL1(T315I)-nonphosphorylated): 100%; % change compared to control (broad panel of kinases [28]; ABL1(T315I)-phosphorylated): 70%; percent of control binding remaining (lower = stronger binding) (broad panel of kinases [29]): 93%; percent of control binding remaining (lower = stronger binding) (broad panel of kinases [30]): 78%; percent of control binding remaining (lower = stronger binding) (broad panel of kinases [31]): 0.2%; percent of control binding remaining (lower = stronger binding) (broad panel of kinases [32]): 93%; percent of control binding remaining (lower = stronger binding) (broad panel of kinases [33]): 100%; percent of control binding remaining (lower = stronger binding) (broad panel of kinases [34]): 98%; percent of control binding remaining (lower = stronger binding) (broad panel of kinases [35]): 0%
